Test results as given in patent US9044454B2, “Regulation of microvasculature occlusion” (NORTHWESTERN UNIVERSITY, priority 2010, dated 2015).

Columns and labels:
[1] = test system: U87 cancer cells (glioma model) tumor in mice; assay: Inhibition of recanalization in U87 tumors embolized with microspheres; type: in vivo
Method: Mice cerebral vasculatures were embolized by intravascular infusion with either (15 micron microspheres+2 mg/ml ML-7 solution) or (15 micron microspheres+vehicle) followed by daily intra-peritoneal injection of ML-7. 14 days later brain tissues were collected and vessels were labeled with fluorescein lectin. The proportion of recanalized occlusions was assessed from 50 randomly selected microsphere in each group.
U87 cancer cells, which model glioma, were implanted in mice to create a tumor. Tumors were embolized by intravascular infusion with either (15 micron microspheres+2 mg/ml ML-7 solution) or (15 micron microspheres+vehicle). 7 days later brain tissues were collected and vessels were labeled with anti CD 31 antibodies. Cell death marker caspase 3 was labeled with anti caspase 3 antibody. Without ML-7 to inhibit extravasation of emboli, individual emboli cause a moderate amount of caspase upregulation and tumor blood vessels are recanalized re-establishing blood flow to the tumor. […] The proportion of recanalized occlusions was assessed for each group.

[2] = test system: mice embolized with fibrin clots or microspheres (cerebral microvasculature); assay: Measurement of embolus extravasation in MMP 2/9 inhibitor injected embolized mice; type: in vivo, mouse
Source text: To induce cerebral embolization fluorescently conjugated fibrin clots, cholesterol emboli (8-20 μm in diameter) or polystyrene microspheres (10 or 15 μm in diameter) were infused through the mouse internal carotid artery. Emboli were imaged in fixed tissues by confocal microscopy after vessel labeling by I.V. injection of FITC-lycopersicom esculentum, thioflavin-S or immunolabeled with anti-PECAM-1, collagen IV or ZO-1 antibodies. Emboli were also imaged overtime in vivo by transcranial two-photon microscopy (TPM) in mice expressing GFP in endothelial cells (Tie2-GFP) or wild type mice injected with thioflavin-S I.V. Blood flow velocity was recorded by line scan TPM imaging to verify microvascular occlusion and reestablishment of flow. […] Quantification of extravasation efficiency was performed from confocal images in fixed brain slices and in a subset of experiments from in vivo TPM time-lapse images. Matrix metalloprotease 2/9 (MMP2/9) activity was measured in areas adjacent to emboli using fluorescent in situ zymography methods. […] Perivascular hypoxia was detected by administration and immunohistochemical detection of hypoxyprobe. Dendritic spine density was quantified in confocal image stacks of fixed brain slices from mice expressing YFP in a subset of pyramidal neurons. […]

[3] = 15 micron microspheres + 2 mg/ml ML-7 solution vs vehicle, FIG. 3

Structure (SMILES): O=S(=O)(c1cccc2c(I)cccc12)N1CCCNCC1 [ML-7]
- cell death marker Caspase-3 within the cancer ([1]; 15 micron microspheres + 2 mg/ml ML-7 solution vs microspheres + vehicle, intravascular infusion, 7 days): broad upregulation
- extravasated emboli [1, 3]: less extravasated emboli
- proportion of recanalized occlusions (occluded vessels re-canalized) [1, 3]: fewer of occluded vessels had been re-canalized

Structure (SMILES): O=S(=O)(CC1CS1)c1ccc(Oc2ccccc2)cc1 (centres unmarked) [SB-3CT]
- extravasation of clot fragments ([2]; fibrin clot-embolized mice, SB-3CT 20 mg/kg/day i.p. vs saline, 4 days): marked reduction
- microsphere extravasation ([2]; microsphere-embolized mice, SB-3CT i.p. daily 2, 10, 20 mg/kg/day or acutely 40 mg/kg vs saline, 14 days post-embolization): substantial reduction
